Target: T1, band 3 (Homo sapiens, UniProt P02730)
T1 sequence (P02730 1-911): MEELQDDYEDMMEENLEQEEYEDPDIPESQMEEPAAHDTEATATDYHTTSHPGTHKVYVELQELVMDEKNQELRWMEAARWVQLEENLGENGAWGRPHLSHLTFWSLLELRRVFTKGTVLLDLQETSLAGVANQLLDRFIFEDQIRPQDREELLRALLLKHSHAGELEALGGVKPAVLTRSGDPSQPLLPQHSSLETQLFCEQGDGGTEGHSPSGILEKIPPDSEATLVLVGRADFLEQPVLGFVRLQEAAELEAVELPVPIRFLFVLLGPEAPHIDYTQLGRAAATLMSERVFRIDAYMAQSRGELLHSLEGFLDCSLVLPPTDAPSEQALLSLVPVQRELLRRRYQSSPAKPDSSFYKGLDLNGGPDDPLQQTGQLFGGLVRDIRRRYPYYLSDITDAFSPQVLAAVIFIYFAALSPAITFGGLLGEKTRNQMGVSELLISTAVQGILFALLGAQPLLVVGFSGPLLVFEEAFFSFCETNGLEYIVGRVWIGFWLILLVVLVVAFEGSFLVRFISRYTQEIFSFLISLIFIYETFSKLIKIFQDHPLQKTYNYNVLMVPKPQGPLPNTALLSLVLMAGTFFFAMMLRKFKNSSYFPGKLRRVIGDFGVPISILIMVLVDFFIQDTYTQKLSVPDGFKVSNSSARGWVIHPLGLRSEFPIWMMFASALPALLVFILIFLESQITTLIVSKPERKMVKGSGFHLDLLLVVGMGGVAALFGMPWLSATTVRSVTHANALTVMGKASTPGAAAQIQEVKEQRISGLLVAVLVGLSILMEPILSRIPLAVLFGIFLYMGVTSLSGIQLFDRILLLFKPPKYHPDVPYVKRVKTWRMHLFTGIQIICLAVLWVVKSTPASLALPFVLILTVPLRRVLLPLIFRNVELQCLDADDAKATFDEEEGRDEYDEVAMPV
Assay: 36Cl exchange flux inhibition in red blood cells, Dixon plots
Assay type: cell-based
Settings: for ID50 for iodide in the medium with low Cl- concentration: 0°C; for DS·Clo (Dixon slope times [Clo]) / Dixon slope (DS) for Io inhibition of Cl- exchange / High/low: DS·Clo at the highest [Clo] divided by that at the given [Clo]: sucrose

[I-].[K+] [iodide, potassium iodide]
ID50 for iodide in the medium with low Cl- concentration (exp 60, pHo 7.2, Hepes, Cli 129 mM, low Clo 2.0 mM): 2.77 mM | DS·Clo (Dixon slope times [Clo]) (exp 60, pHo 7.2, Clo 2 mM): 0.0823 | Dixon slope (DS) for Io inhibition of Cl- exchange (exp 60, pHo 7.2, Clo 2 mM): 0.0412 | High/low: DS·Clo at the highest [Clo] divided by that at the given [Clo] (exp 60, pHo 7.2, Clo 2 mM): 4.69 | DS·Clo (Dixon slope times [Clo]) (exp 60, pHo 7.2, Clo 150 mM): 0.386 | Dixon slope (DS) for Io inhibition of Cl- exchange (exp 60, pHo 7.2, Clo 150 mM): 0.00257 | ID50 for iodide in the medium with low Cl- concentration (exp 60, pHo 10.7, CHES, Cli 129 mM, low Clo 2.0 mM): 12.9 mM | DS·Clo (Dixon slope times [Clo]) (exp 60, pHo 10.7, Clo 2 mM): 0.1169 | Dixon slope (DS) for Io inhibition of Cl- exchange (exp 60, pHo 10.7, Clo 2 mM): 0.0584 | High/low: DS·Clo at the highest [Clo] divided by that at the given [Clo] (exp 60, pHo 10.7, Clo 2 mM): 1.79 | DS·Clo (Dixon slope times [Clo]) (exp 60, pHo 10.7, Clo 150 mM): 0.2096 | Dixon slope (DS) for Io inhibition of Cl- exchange (exp 60, pHo 10.7, Clo 150 mM): 0.0014 | ID50 for iodide in the medium with low Cl- concentration (exp 60a, pHo 7.2, Hepes, Cli 149 mM, low Clo 1.0 mM): 2.44 mM | DS·Clo (Dixon slope times [Clo]) (exp 60a, pHo 7.2, Clo 1 mM): 0.0509 | Dixon slope (DS) for Io inhibition of Cl- exchange (exp 60a, pHo 7.2, Clo 1 mM): 0.0509 | High/low: DS·Clo at the highest [Clo] divided by that at the given [Clo] (exp 60a, pHo 7.2, Clo 1 mM): 6.67 | DS·Clo (Dixon slope times [Clo]) (exp 60a, pHo 7.2, Clo 150 mM): 0.339 | Dixon slope (DS) for Io inhibition of Cl- exchange (exp 60a, pHo 7.2, Clo 150 mM): 0.00226 | ID50 for iodide in the medium with low Cl- concentration (exp 60a, pHo 10.7, CHES, Cli 149 mM, low Clo 2.0 mM): 22.6 mM | DS·Clo (Dixon slope times [Clo]) (exp 60a, pHo 10.7, Clo 2 mM): 0.1078 | Dixon slope (DS) for Io inhibition of Cl- exchange (exp 60a, pHo 10.7, Clo 2 mM): 0.0539 | High/low: DS·Clo at the highest [Clo] divided by that at the given [Clo] (exp 60a, pHo 10.7, Clo 2 mM): 2.13 | DS·Clo (Dixon slope times [Clo]) (exp 60a, pHo 10.7, Clo 150 mM): 0.2300 | Dixon slope (DS) for Io inhibition of Cl- exchange (exp 60a, pHo 10.7, Clo 150 mM): 0.00153 | ID50 for iodide in the medium with low Cl- concentration (exp 61, pHo 11.6, CAPS, Cli 131 mM, low Clo 50 mM): 34.9 mM | DS·Clo (Dixon slope times [Clo]) (exp 61, pHo 11.6, Clo 50 mM): 0.2858 | Dixon slope (DS) for Io inhibition of Cl- exchange (exp 61, pHo 11.6, Clo 50 mM): 0.00572 | High/low: DS·Clo at the highest [Clo] divided by that at the given [Clo] (exp 61, pHo 11.6, Clo 50 mM): 0.94 | DS·Clo (Dixon slope times [Clo]) (exp 61, pHo 11.6, Clo 150 mM): 0.2682 | Dixon slope (DS) for Io inhibition of Cl- exchange (exp 61, pHo 11.6, Clo 150 mM): 0.00179 | ID50 for iodide in the medium with low Cl- concentration (exp 61a, pHo 11.6, CAPS, Cli 144 mM, low Clo 28 mM): 46.6 mM | DS·Clo (Dixon slope times [Clo]) (exp 61a, pHo 11.6, Clo 27.5 mM): 0.2089 | Dixon slope (DS) for Io inhibition of Cl- exchange (exp 61a, pHo 11.6, Clo 27.5 mM): 0.0076 | High/low: DS·Clo at the highest [Clo] divided by that at the given [Clo] (exp 61a, pHo 11.6, Clo 27.5 mM): 0.77 | DS·Clo (Dixon slope times [Clo]) (exp 61a, pHo 11.6, Clo I10 mM): 0.1613 | Dixon slope (DS) for Io inhibition of Cl- exchange (exp 61a, pHo 11.6, Clo I10 mM): 0.00147 | ID50 for iodide in the medium with low Cl- concentration (exp 64, pHo 8.66, CHES, Cli 138 mM, low Clo 0.9 mM): 3.06 mM | ID50 for iodide in the medium with low Cl- concentration (exp 64, pHo 9.9, CHES, Cli 138 mM, low Clo 2.2 mM): 7.48 mM | ID50 for iodide in the medium with low Cl- concentration (exp 64a, pHo 8.66, CHES, Cli 137 mM, low Clo 0.9 mM): 2.24 mM | ID50 for iodide in the medium with low Cl- concentration (exp 64a, pHo 9.9, CHES, Cli 137 mM, low Clo 2.2 mM): 7.57 mM | ID50 for iodide in the medium with low Cl- concentration (exp 67, pHo 8.5, CHES, Cli 144 mM, low Clo 0.6 mM): 2.18 mM | ID50 for iodide in the medium with low Cl- concentration (exp 70, pHo 7.2, Hepes, Cli 147 mM, low Clo 0.6 mM): 1.47 mM | DS·Clo (Dixon slope times [Clo]) (exp 70, pHo 7.2, Clo 0.59 mM): 0.0584 | Dixon slope (DS) for Io inhibition of Cl- exchange (exp 70, pHo 7.2, Clo 0.59 mM): 0.0996 | High/low: DS·Clo at the highest [Clo] divided by that at the given [Clo] (exp 70, pHo 7.2, Clo 0.59 mM): 5.52 | DS·Clo (Dixon slope times [Clo]) (exp 70, pHo 7.2, Clo 110 mM): 0.322 | Dixon slope (DS) for Io inhibition of Cl- exchange (exp 70, pHo 7.2, Clo 110 mM): 0.00293 | ID50 for iodide in the medium with low Cl- concentration (exp 70, pHo 8.5, CHES, Cli 147 mM, low Clo 0.6 mM): 1.82 mM | ID50 for iodide in the medium with low Cl- concentration (exp 72, pHo 8.0, Hepes, Cli 129 mM, low Clo 0.9 mM): 1.82 mM | ID50 for iodide in the medium with low Cl- concentration (exp 72, pHo 9.2, CHES, Cli 129 mM, low Clo 0.9 mM): 4.19 mM | ID50 for iodide in the medium with low Cl- concentration (exp 74, pHo 8.5, CHES, Cli 156 mM, low Clo 1.1 mM): 2.10 mM | ID50 for iodide in the medium with low Cl- concentration (exp 80, pHo 9.2, CHES, Cli 142 mM, low Clo 0.9 mM): 3.88 mM | ID50 for iodide in the medium with low Cl- concentration (exp 81, pHo 8.5, Hepes, Cli 142 mM, low Clo 0.6 mM): 2.31 mM | ID50 for iodide in the medium with low Cl- concentration (exp 81, pHo 10, CHES, Cli 142 mM, low Clo 1.7 mM): 7.81 mM | ID50 for iodide in the medium with low Cl- concentration (exp 82, pHo 10, CHES, Cli 138 mM, low Clo 1.7 mM): 9.85 mM | ID50 for iodide in the medium with low Cl- concentration (exp 82, pHo 10.6, CHES, Cli 138 mM, low Clo 1.7 mM): 19.8 mM | ID50 for iodide in the medium with low Cl- concentration (exp 83, pHo 10, CHES, Cli 129 mM, low Clo 1.7 mM): 6.58 mM

From article PMC2219267 (The Journal of General Physiology, 1996)
